Data on eleven compounds can be found in BindingDB's records for doi:10.1016/j.bmc.2009.07.051 (La Rochelle University, 2009).

For assay [1], the target named is Cyclin-dependent kinase 5 activator 1 (Homo sapiens, UniProt Q15078+Q00535). Kind of assay: Inhibition of GST-fused CDK5/p25 expressed in Escherichia coli assessed as [gamma-33P]ATP incorporation after 10 mins by scintillation counting.
The target of assay [2] is Dual specificity tyrosine-phosphorylation-regulated kinase 1A (Rattus norvegicus, UniProt Q63470). Description: Inhibition of GST-fused rat recombinant DYRK1A expressed in Escherichia coli assessed as [gamma-33P]ATP incorporation after 10 mins by scintillation counting.

Cyclin-dependent kinase 5 activator 1, sequence (Q15078 whole entry, the tested form may be a part): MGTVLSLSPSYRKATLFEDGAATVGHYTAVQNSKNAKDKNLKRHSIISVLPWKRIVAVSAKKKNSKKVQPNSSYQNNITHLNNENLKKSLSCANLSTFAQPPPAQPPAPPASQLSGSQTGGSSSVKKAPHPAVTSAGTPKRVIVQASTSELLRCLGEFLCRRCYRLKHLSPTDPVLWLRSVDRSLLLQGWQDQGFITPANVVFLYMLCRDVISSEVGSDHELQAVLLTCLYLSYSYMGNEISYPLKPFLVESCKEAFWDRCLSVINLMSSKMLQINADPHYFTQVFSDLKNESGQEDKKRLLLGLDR
Cyclin-dependent kinase 5 activator 1, sequence (Q00535 whole entry, the tested form may be a part): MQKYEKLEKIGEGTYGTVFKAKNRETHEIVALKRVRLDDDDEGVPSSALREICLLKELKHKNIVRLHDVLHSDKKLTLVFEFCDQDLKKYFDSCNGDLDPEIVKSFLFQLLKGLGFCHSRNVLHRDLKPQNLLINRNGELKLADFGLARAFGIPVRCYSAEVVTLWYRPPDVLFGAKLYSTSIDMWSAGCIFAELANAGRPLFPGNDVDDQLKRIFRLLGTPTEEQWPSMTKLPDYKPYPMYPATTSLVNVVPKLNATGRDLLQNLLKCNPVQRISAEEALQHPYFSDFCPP

In the case of `O=C1C(C2C(=O)Nc3cc([N+](=O)[O-])ccc32)=Nc2ccc(Br)cc21` (stereo unspecified), the IC50 in assay [1] was more than 10 µM.
On to `O=C1C(C2C(=O)Nc3cc([N+](=O)[O-])ccc32)=Nc2ccccc21` (stereo unspecified) [(2''Z)-6-Nitroindirubin], for which, in assay [1], the IC50 was more than 10 µM.
Regarding `O=C1C(C2C(=O)Nc3c(Br)cc([N+](=O)[O-])cc32)=Nc2ccc(Br)cc21` (stereo unspecified) [(2'Z)-5'-7-Dibromo-5-nitroindirubin], the IC50 in assay [2] and in assay [1] was more than 10 µM in each case.
For the compound `O=C1N=c2c(Br)cc([N+](=O)[O-])cc2=C1c1[nH]c2ccccc2c1O` [(2'Z)-7-Bromo-5-nitroindirubin], the IC50 in assay [2] and in assay [1] was more than 10 µM each time.
In the case of `Nc1ccc2c(c1)C(c1[nH]c3ccc(Br)cc3c1N=O)C(=O)N2` (stereo unspecified) [(Z)-5'-Amino-5-bromo-1H,1'H-[2,3']biindolylidene-3,2'-dione 3-oxime], the IC50 in assay [2] was more than 10 µM.
On to `O=C1N=c2ccc([N+](=O)[O-])cc2=C1c1[nH]c2ccccc2c1O` [(Z)-5'-Nitro-1H,1'H-[2,3']biindolylidene-3,2'-dione], for which the IC50 in assay [2] is more than 10 µM.
Consider `O=Nc1c(C2C(=O)Nc3c(Br)cc([N+](=O)[O-])cc32)[nH]c2ccc(Br)cc12` (stereo unspecified) [(Z)-5,7'-Dibromo-5'-nitro-1H,1'H-[2,3']biindolylidene-3,2'-dione 3-oxime], for which the IC50 in assay [2] and in assay [1] was more than 10 µM each time.
As for `O=Nc1c(C2C(=O)Nc3ccc([N+](=O)[O-])cc32)[nH]c2ccc(Br)cc12` (stereo unspecified) [(Z)-5-Bromo-5'-nitro-1H,1'H-[2,3']biindolylidene-3,2'-dione 3-oxime], the IC50 in assay [2] was more than 10 µM.
For `O=C1C(C2C(=O)Nc3ccc([N+](=O)[O-])cc32)=Nc2ccc(Br)cc21` (stereo unspecified) [(Z)-5-Bromo-5'-nitro-1H,1'H-[2,3']biindolylidene-3,2'-dione], the IC50 in assay [2] and in assay [1] was more than 10 µM each time.
As to `O=Nc1c(C2C(=O)Nc3c(Br)cc([N+](=O)[O-])cc32)[nH]c2ccccc12` (stereo unspecified) [(Z)-7'-Bromo-5'-nitro-1H,1'H-[2,3']biindolylidene-3,2'-dione 3-oxime], the IC50 in assay [2] and in assay [1] was more than 10 µM throughout.
Take `CC(=O)Nc1ccc2c(c1)C(c1[nH]c3ccc(Br)cc3c1N=O)C(=O)N2` (stereo unspecified) [N-{(Z)-5-Bromo-3-[(E)-hydroxyimino]-2'-oxo-1,3,1',2'-tetrahydro-[2,3']biindolyliden-5'-yl}-acetamide]: the IC50 in assay [2] is more than 10 µM.
